In US4921871A, “Enolamides, pharmaceutical compositions and methods of use thereof for treating inflammation” (Warner-Lambert Company, priority 1987, dated 1990):

Target: T1, human leukocyte 5-lipoxygenase (Homo sapiens, UniProt P09917)
T1 construct: endogenous in cells; host or cells: leukocytes from fresh human blood
T1 sequence (P09917 1-674): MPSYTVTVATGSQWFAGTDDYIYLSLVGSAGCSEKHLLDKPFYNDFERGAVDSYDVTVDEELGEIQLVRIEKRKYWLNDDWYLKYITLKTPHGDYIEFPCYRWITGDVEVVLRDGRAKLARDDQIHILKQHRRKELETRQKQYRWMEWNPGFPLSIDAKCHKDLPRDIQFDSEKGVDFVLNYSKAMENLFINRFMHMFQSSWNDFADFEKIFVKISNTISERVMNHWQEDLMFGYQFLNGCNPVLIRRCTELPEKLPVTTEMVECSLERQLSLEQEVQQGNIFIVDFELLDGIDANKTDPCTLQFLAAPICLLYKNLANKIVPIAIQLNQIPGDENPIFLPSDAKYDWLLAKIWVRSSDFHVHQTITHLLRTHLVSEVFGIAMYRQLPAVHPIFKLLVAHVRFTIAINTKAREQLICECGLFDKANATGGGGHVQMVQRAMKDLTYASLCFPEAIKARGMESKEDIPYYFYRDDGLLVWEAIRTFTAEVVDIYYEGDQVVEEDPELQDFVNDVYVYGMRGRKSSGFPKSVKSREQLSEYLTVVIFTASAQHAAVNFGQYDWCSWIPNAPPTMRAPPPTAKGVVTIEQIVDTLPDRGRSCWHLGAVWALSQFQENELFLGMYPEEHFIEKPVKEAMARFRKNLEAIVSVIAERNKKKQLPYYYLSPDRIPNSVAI
Experiment: 5-Lipoxygenase assay in human leukocytes, formation of 5-HETE (5LOA; 5LOA1 or 5LOA2 not specified)
Format: cell-based
Source text: To Evaluate the Effect of Each Compounds as a 5-Lipoxygenase Inhibitor in Comparison to Standard Reference Agents in Human Leukocytes (5LOAl)
The purpose of this assay is to evaluate the activity of each compound as an inhibitor of human leukocyte 5-lipoxygenase.
Arachidonic acid and calcium ionophore A23l87 are obtained from Sigma (St. Louis, Mo.). Silica gel plates, GF are obtained from Analtech (Newark, Del.). Arachidonic acid, (1-^14 C) and 5-HETE (^3 H), 5 (S)-hydroxy-6-trans, 8,11,14-cis eicosatetraenoic acid, are obtained from New England Nuclear (Boston, Mass.). Six percent Dextran-70 in 0.9% NaCl is obtained from Cutter Labs (Berkeley, Calif.).
Fresh blood from normal adult men who had not received any drugs for at least the previous five days is obtained by the Community Research Clinic (WL/PD) using venipuncture and collected into heparinized vacuotainer tubes. To every 100 ml of pooled blood is added 25 ml of dextran solution (6% dextran -70 in 0.9% sodium chloride containing 3% dextrose) and this is mixed gently in a plastic cylinder. The mixture is left to stand at room temperature for at least 90 minutes. The upper layer which is rich in leukocytes and platelets is then carefully decanted into 50 ml plastic tubes and centrifuged at about 100×g for eight minutes in an IEC centrifuge and rotor number 269 (about 600 rpm). The supernatant fluid is discarded and the pellet is resuspended in 10 ml of 0.87% ammonium chloride for exactly two minutes. This procedure is to lyse completely contaminating red blood cells. Leukocytes are then separated by centrifugation for ten minutes. The pellet is washed three times by suspension in 20 ml PBS (sodium chloride, 7.1 g; Na2 HPO4, 1.15 g; KH2 PO4, 0.2 g, and KCl, 0.2 g/L) and centrifuged as before. The final pellet is suspended in PBS containing 0.87 mM CaCl2. Viability of the cells is then checked using trypan blue exclusion method and is found to be over 90%.
Leukocyte cells in suspension (0.98 ml) are incubated with or without test compounds for five minutes at 37° C. in a shaking water bath. At this time a 17 μl mixture is prepared per 1 ml of cell suspension: 100 mM arachidonic acid, 1 μl, 0.05 μCi ^14 C-arachidonic acid in 5 .rho.l; 1 mM calcium ionophore A23187, 10 μl (1). This mixture is added and the incubation continued for five minutes. The reaction is stopped by adding four volumes of absolute ethanol and the mixture is kept in ice for 30 minutes. The floculated precipitate is separated by centrifugation at about 37,000×g for 20 minutes (Beckman Instruments rotor number 40). The alcohol extract is taken to dryness under a stream of nitrogen and the residue is dissolved in 100-200 μl absolute ethanol. At the time any turbidity is removed by centrifugation. An aliquot (25-50 μl) is applied onto 20×20 cm silica gel TLC plate and developed using the following solvent system: diethyl ether, petroleum ether (2040° C.), acetic acid (50:50: 1 v/v). Zones of 1 cm apart are scraped from the TLC plate and transferred to mini-vials. Methanol (0.5 ml) is added to dissolve the radioactivity adsorbed to the silica gel and scintillation fluid (H.P., Beckman), 5 ml is then added and vials are counted in a liquid scintillation counter. A sample of ^3 H-5-HETE is applied and used for the identification of the formed 5-HETE.
Total radioactivity in the test as well as the control samples are normalized and the amount of 5-HETE present is calculated accordingly.
IC50 values are defined as the concentrations of test agents which caused a 50% inhibition of the formation of 5-HETE as compared to control and are determined by inspection of the concentration-response curves.
The formation of 5-HETE in human leukocytes is considered a measure of 5-lipoxygenase activity. The protocol is described in the following.
Fresh heparinized or EDTA treated human blood is mixed with 6% dextran-3% dextrose in isotonic saline in the ratio 0.25 ml dextran solution per 1.0 ml blood. […]

| Structure (SMILES) | 5LOA, % Inhibition (2.00 E -5 M) | 5LOA, % Inhibition (5.00 E -6 M) |
| --- | --- | --- |
| O=C(Nc1ccc(CCc2ccc(Cl)c(Cl)c2)cc1)C(=O)c1sc2ccccc2c1O [Example 136, Benzo[b]thiophene-2-acetamide, N-[4-[2-(3,4-dichlorophenyl)ethyl]phenyl]-3-hydroxy-α-oxo] | +2.2% | +1.4% |
| COc1c(C(=O)Nc2ccc(CCc3ccc(Cl)c(Cl)c3)cc2)sc2ccccc12 [Example 147, Benzo[b]thiophene-2-carboxamide, N-[4-[2-(3,4-dichlorophenyl)ethyl]phenyl]-3-methoxy] | 13.8% | 5.5% |
